Assay results published in ChEMBL document CHEMBL1201862, “PubChem BioAssay data set” (2004).
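Step 1: Grow cells in 96-well plates. Step 2: Expose to compound for 48 hours at 5 concentrations. Step 3: Interpolate endpoints linearly; if unreached, use highest concentration. GI50 = concentration required for 50% inhibition of growth.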 Calls of active or inactive are those of the source. Cut-off read from the data, not from the text of the source: active = GI50 up to about 1.1 µM and inactive = higher.

Experiments:
Experiment in all cases: growth of human tumour cells (NCI), 48 h
SW-620 = test system: SW-620
OVCAR-3 = test system: OVCAR-3
SF-268 = test system: SF-268
HT-29 = test system: HT-29
A498 = test system: A498
SNB-19 = test system: SNB-19
DLD-1 = test system: DLD-1
LOX IMVI = test system: LOX IMVI
NCI-H226 = test system: NCI-H226
HCT-116 = test system: HCT-116
786-0 = test system: 786-0
SF-539 = test system: SF-539
HCC 2998 = test system: HCC 2998
COLO 205 = test system: COLO 205
MOLT-4 = test system: MOLT-4
UACC-257 = test system: UACC-257

In the case of `CC(=O)OC(C)(C)/C=C/C(=O)[C@](C)(O)[C@H]1[C@H](O)C[C@@]2(C)[C@@H]3CC=C4[C@@H](C[C@H](O)[C@H](O)C4(C)C)[C@]3(C)C(=O)C[C@]12C`, the GI50 (SW-620) is reported as 0.274 µM (active), the GI50 (OVCAR-3) is reported as 0.314 µM (active) and the GI50 (SF-268) is reported as 0.397 µM (active). For the same compound, the GI50 (HT-29) was 0.302 µM (active), the GI50 (A498) was 0.853 µM (active) and the GI50 (SNB-19) was 0.7 µM (active). The GI50 (DLD-1) was 0.274 µM (active), the GI50 (LOX IMVI) was 0.303 µM (active) and the GI50 (NCI-H226) was 0.984 µM (active). The GI50 (HCT-116) was 0.277 µM (active), the GI50 (786-0) was 0.24 µM (active) and the GI50 (SF-539) was 0.303 µM (active). The GI50 (HCC 2998) was 0.822 µM (active), the GI50 (COLO 205) was 0.31 µM (active) and the GI50 (MOLT-4) was 0.289 µM (active). For the same compound, the GI50 (UACC-257) was 0.638 µM (active).

In the case of `C/C(O)=C1\CC2CN3CCc4c([nH]c5ccccc45)C3CC2CC1=O` (configuration not stated), the GI50 (SW-620) is reported as 38.5 µM (inactive), the GI50 (OVCAR-3) is reported as 27.9 µM (inactive) and the GI50 (SF-268) is reported as 54.6 µM (inactive). The GI50 (HT-29) was 67.1 µM (inactive), the GI50 (A498) was > 100 µM (inactive) and the GI50 (SNB-19) was > 100 µM (inactive). For the same compound, the GI50 (DLD-1) was 40.6 µM (inactive), the GI50 (LOX IMVI) was 26.1 µM (inactive) and the GI50 (NCI-H226) was 54.1 µM (inactive). For the same compound, the GI50 (HCT-116) was 52.1 µM (inactive), the GI50 (786-0) was 38 µM (inactive) and the GI50 (SF-539) was 75.2 µM (inactive). For the same compound, the GI50 (HCC 2998) was 58.9 µM (inactive), the GI50 (COLO 205) was > 100 µM (inactive) and the GI50 (MOLT-4) was 21.8 µM (inactive). For the same compound, the GI50 (UACC-257) was > 100 µM (inactive).

With `CC(C)(C)N/N=C(\C(=O)Nc1nnc(S)[nH]1)C1C(=O)Nc2ccccc2[S+]1[O-]` (configuration not stated) the GI50 (SW-620) was > 100 µM (inactive), the GI50 (OVCAR-3) was > 100 µM (inactive) and the GI50 (SF-268) was > 100 µM (inactive). For the same compound, the GI50 (HT-29) was > 100 µM (inactive), the GI50 (A498) was > 100 µM (inactive) and the GI50 (SNB-19) was > 100 µM (inactive). The GI50 (DLD-1) was > 100 µM (inactive), the GI50 (LOX IMVI) was > 100 µM (inactive) and the GI50 (NCI-H226) was > 100 µM (inactive). For the same compound, the GI50 (HCT-116) was > 100 µM (inactive), the GI50 (786-0) was > 100 µM (inactive) and the GI50 (SF-539) was > 100 µM (inactive). The GI50 (HCC 2998) was > 100 µM (inactive), the GI50 (COLO 205) was > 100 µM (inactive) and the GI50 (MOLT-4) was > 100 µM (inactive). For the same compound, the GI50 (UACC-257) was > 100 µM (inactive).

`O=C(NC(=O)c1cc2cc(Br)cc(Br)c2oc1=O)Oc1ccccc1` was tested, and the GI50 (SW-620) was > 100 µM (inactive), the GI50 (OVCAR-3) was > 100 µM (inactive) and the GI50 (SF-268) was > 100 µM (inactive). The GI50 (HT-29) was > 100 µM (inactive), the GI50 (A498) was > 100 µM (inactive) and the GI50 (SNB-19) was 59.8 µM (inactive). The GI50 (DLD-1) was > 100 µM (inactive), the GI50 (LOX IMVI) was 63.2 µM (inactive) and the GI50 (NCI-H226) was 78.2 µM (inactive). For the same compound, the GI50 (HCT-116) was > 100 µM (inactive), the GI50 (786-0) was 45.3 µM (inactive) and the GI50 (SF-539) was 87.3 µM (inactive). The GI50 (HCC 2998) was > 100 µM (inactive), the GI50 (COLO 205) was > 100 µM (inactive) and the GI50 (MOLT-4) was > 100 µM (inactive). For the same compound, the GI50 (UACC-257) was 59.2 µM (inactive).

With `COC(=O)[C@H]1COC(=S)N1C(=O)[C@@H](C)[C@H](O)C(C)C` the GI50 (SW-620) was > 100 µM (inactive), the GI50 (OVCAR-3) was > 100 µM (inactive) and the GI50 (SF-268) was > 100 µM (inactive). The GI50 (HT-29) was > 100 µM (inactive), the GI50 (A498) was > 100 µM (inactive) and the GI50 (SNB-19) was > 100 µM (inactive). The GI50 (DLD-1) was > 100 µM (inactive), the GI50 (LOX IMVI) was 57.4 µM (inactive) and the GI50 (NCI-H226) was 12.8 µM (inactive). The GI50 (HCT-116) was > 100 µM (inactive), the GI50 (786-0) was > 100 µM (inactive) and the GI50 (SF-539) was > 100 µM (inactive). The GI50 (HCC 2998) was > 100 µM (inactive), the GI50 (COLO 205) was > 100 µM (inactive) and the GI50 (MOLT-4) was > 100 µM (inactive). For the same compound, the GI50 (UACC-257) was > 100 µM (inactive).

`COC(=O)C(C(=O)C(=O)Nc1ccc(N)cc1[N+](=O)[O-])c1nc2ccc(Cl)cc2nc1O` (configuration not stated) was tested, and the GI50 (SW-620) was > 100 µM (inactive), the GI50 (OVCAR-3) was 74.8 µM (inactive) and the GI50 (SF-268) was 72.9 µM (inactive). For the same compound, the GI50 (HT-29) was > 100 µM (inactive), the GI50 (A498) was > 100 µM (inactive) and the GI50 (SNB-19) was > 100 µM (inactive). The GI50 (DLD-1) was > 100 µM (inactive), the GI50 (LOX IMVI) was > 100 µM (inactive) and the GI50 (NCI-H226) was 63 µM (inactive). The GI50 (HCT-116) was > 100 µM (inactive), the GI50 (786-0) was > 100 µM (inactive) and the GI50 (SF-539) was > 100 µM (inactive). For the same compound, the GI50 (HCC 2998) was > 100 µM (inactive), the GI50 (COLO 205) was > 100 µM (inactive) and the GI50 (MOLT-4) was > 100 µM (inactive). For the same compound, the GI50 (UACC-257) was > 100 µM (inactive).

With `ClCCNCCNCCCl.ClCCNCCNCCCl.[O-][Cl+3]([O-])([O-])O` the GI50 (SW-620) was 21 µM (inactive), the GI50 (OVCAR-3) was 17.6 µM (inactive) and the GI50 (SF-268) was 25.5 µM (inactive). The GI50 (HT-29) was > 100 µM (inactive), the GI50 (A498) was 57.1 µM (inactive) and the GI50 (SNB-19) was > 100 µM (inactive). For the same compound, the GI50 (DLD-1) was 18.5 µM (inactive), the GI50 (LOX IMVI) was 20 µM (inactive) and the GI50 (NCI-H226) was > 100 µM (inactive). For the same compound, the GI50 (HCT-116) was 27.5 µM (inactive), the GI50 (786-0) was 18.8 µM (inactive) and the GI50 (SF-539) was 26.2 µM (inactive). The GI50 (HCC 2998) was > 100 µM (inactive), the GI50 (COLO 205) was 40.7 µM (inactive) and the GI50 (MOLT-4) was 31.4 µM (inactive). The GI50 (UACC-257) was 27 µM (inactive).
